Data published in ChEMBL document CHEMBL1201862, “PubChem BioAssay data set” (2004).
The source made the active and inactive calls.

Tests used:
[1] = target: T1, Kappa-type opioid receptor (Homo sapiens, UniProt P41145); assay: KOR agonist analogs, arrestin-GFP redistribution, SAR follow-up, imaging, image-based, set 3 (AID 488833); format: functional
Mu-type opioid receptor = Mu-type opioid receptor (Homo sapiens, UniProt P35372); assay: SAR Analysis of Agonists of the MOR Receptor using an Image-Based Assay - Set 3. [Related pubchem assays (depositor defined):AID1777, AID1785, AID1786, AID1966, AID2133, AID2136, AID2284, AID2285, AID2352]; format: functional
[2] = target: Delta-type opioid receptor (Homo sapiens, UniProt P41143); assay: SAR Analysis of Agonists of the DOR Receptor using an Image-Based Assay - Set 3. [Related pubchem assays (depositor defined):AID1777, AID1786]; format: functional
[3] = target: T1, Kappa-type opioid receptor; assay: SAR analysis of small molecule agonists of the kappa opioid receptor via a luminescent beta-arrestin assay - Set 3. [Related pubchem assays (depositor defined):AID1777, AID1785, AID1786, AID1966, AID2133, AID2136, AID2284, AID2500]; format: functional
[4] = target: Type-1 angiotensin II receptor (Homo sapiens, UniProt P30556); assay: AT1 receptor agonists, dose response, selectivity assay for APJ receptor agonist project, cell-based, uHTS hits (AID 488865); format: functional;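 note: beta-arrestin recruitment to AT1 measured by enzyme fragment complementation luminescence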
[5] = Luminescence Cell-Based Dose Response HTS to Identify Inhibitors of Luciferase Translation or Activity in H4-C Neuroglioblastoma Cells. [Related pubchem assays: 1813 (Primary HTS), 1827 (Project Summary)]; format: functional
[6] = Luminescence Cell-Based Dose Response HTS to Identify Activators of Luciferase Translation or Activity in H4-C Neuroglioblastoma Cells. [Related pubchem assays: 1829 (Project Summary), 1814 (Primary HTS)]; format: functional
[7] = inhibitors of firefly luciferase expression or activity, dose response, H4 neuroglioma cells, luminescence (AID 1990); format: functional, cell-based
[8] = Luminescence Cell-Based Dose Retest to Confirm Activators of 5'UTR Stem-Loop Driven Alpha-Synuclein mRNA Translation in H4 Neuroglioblastoma Cells. [Related pubchem assays (depositor defined):AID1813, AID1829]; format: functional
[9] = Luminescence Cell-Based Dose Response HTS to Identify Activators of 5'UTR Stem-Loop Driven Prion Protein mRNA Translation in H4-C Neuroglioblastoma Cells. [Related pubchem assays: 1829 (Project Summary), 1814 (Primary HTS)]; format: functional
[10] = Luminescence Cell-Based Dose HTS Response to Identify Inhibitors of 5'UTR Stem-Loop Driven Prion Protein mRNA Translation in H4-C Neuroglioblastoma Cells. [Related pubchem assays (depositor defined):AID1814, AID1827]; format: functional
[11] = Luminescence Cell-Based Dose Response HTS to Identify Inhibitors of 5'UTR Stem-Loop Driven Prion Protein mRNA Translation in H4 Neuroglioblastoma Cells. [Related pubchem assays: 1827 (Project Summary), 1813 (Primary HTS)]; format: functional
[12] = inhibitors of SNCA 5'UTR-driven reporter translation, confirmation, H4 neuroglioma cells, luminescence (AID 1988); format: functional, cell-based
[13] = Luminescence Cell-Based Dose Confirmation HTS to Identify Inhibitors of 5'UTR Stem-Loop Driven Alpha-Synuclein mRNA Translation in H4 Neuroglioblastoma Cells. [Related pubchem assays: 1827 (Project Summary), 1813 (Primary HTS)]; format: functional
[14] = NIH-3T3 fibroblast cytotoxicity, dose response, cytotoxicity control, cell-based, fluorescence, Alamar Blue, secondary assay (AID 2327); format: functional;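 note: NIH-3T3 mouse fibroblasts cultured with fluconazole at 8 µg/mL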
[15] = luciferase reporter signal reduction – luminescence, H4-C neuroglioblastoma cells, dose response (AID 2458); format: functional, cell-based;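 note: H4 neuroglioblastoma cells stably carrying a luciferase reporter gene fusion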
[16] = tested on: Streptococcus sp. 'group A'; assay: growth inhibition of control SK(-) GAS strain, dose response, counter-screen for streptokinase expression inhibitor project, luminescence, kanamycin, BacTiterGlo, confirmation (AID 1900); format: functional, organism-based
BJ [17] = assay: cytotoxicity toward BJ-TERT fibroblasts, dose response, cell-based, RAS-independent, luminescence (AID 1933); format: functional; details: Homo sapiens
cells = format: functional, cell-based
BJ [18] = assay: cells; format: functional, cell-based; details: Homo sapiens
[19] = C. albicans growth with fluconazole, confirmation, fluorescence, retest (AID 2467); format: functional, cell-based
[20] = microbe, parasite or virus in culture; format: functional; details: Mycobacterium tuberculosis
[21] = target: Serine/threonine-protein phosphatase (Candida dubliniensis (strain CD36 / CBS 7987 / NCPF 3949 / NRRLY-17841) (Yeast), UniProt B9W6M3); assay: calcineurin pathway inhibitors in yeast reporter, dose response, S. cerevisiae, CDRE-lacZ, luminescence, secondary (AID 2388); format: functional, cell-based;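 note: yeast reporter cells carrying a calcineurin-responsive lacZ construct stimulated with calcium chloride; luminescent beta-galactosidase reporter signal in whole cells rather than isolated phosphatase activity; potency for inhibition where a drop in reporter signal means calcineurin blockade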
BJ [22] = assay: cytotoxicity toward BJ-TERT-LT-ST fibroblasts, dose response, cell-based, RAS-independent, luminescence (AID 1935); format: functional; details: Homo sapiens;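 note: BJ fibroblasts immortalized with TERT plus LT and ST oncogenes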
[23] = cytotoxicity toward DRD oncogenic fibroblasts, dose response, cell-based, non-viral oncogenic, luminescence (AID 1934); format: functional; details: Homo sapiens
Streptococcus = assay: Group A Streptococcus viability loss, dose response, counter-screen for streptokinase expression inhibitor project, luminescence, BacTiterGlo (AID 1915); format: functional, organism-based;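 note: potency for reduction of bacterial viability or growth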
[24] = inhibitors of SNCA 5'UTR-driven translation, confirmation, luminescence, H4 neuroglioblastoma cells, dose confirmation (AID 2454); format: functional, cell-based;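 note: H4 neuroglioblastoma cells carrying an alpha-synuclein 5'UTR luciferase reporter; potency for inhibition of the luciferase signal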
[25] = target: NACHT, LRR and PYD domains-containing protein 3 (Homo sapiens, UniProt Q96P20); assay: NALP3 inhibitors in yeast, dose response, luminescent (AID 488799); format: functional
[26] = target: Intestinal-type alkaline phosphatase (Homo sapiens, UniProt P09923); assay: activation of human intestinal alkaline phosphatase – biochemical, dose response (AID 488873); format: functional
[27] = target: Alkaline phosphatase, placental type (Homo sapiens, UniProt P05187); assay: PLAP enzyme inhibitors, confirmation, biochemical, luminescence (AID 1512); format: functional
[28] = target: Intestinal-type alkaline phosphatase (Mus musculus, UniProt P24822); assay: mouse intestinal alkaline phosphatase activators, dose response, biochemical, luminescence, uHTS hits (AID 488783); format: functional
CHO = assay: cytotoxicity in TLR9-MyD88 CHO cells, dose response, cytotoxicity control for TLR9-MyD88 binding inhibitor project, cell-based, luminescence (AID 588339); format: functional, hamster; details: Cricetulus griseus;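 note: CHO cells stably coexpressing TLR9 and MyD88 fusions from primary screen; compound exposure lasted 48 hours before viability readout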
BJ [29] = assay: cytotoxicity toward Ras-transformed BJeLR fibroblasts, dose response, cell-based, alamar blue fluorescence, cherrypicked samples (AID 2631); format: functional; details: Homo sapiens;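 note: confirmatory dose-response assay in RAS-dependent BJ fibroblasts engineered with TERT, LT and ST, with cytotoxicity read by fluorescence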
Beta Lactamase = Beta Lactamase (Pseudomonas aeruginosa, UniProt Q932Y6); assay: beta-lactamase reporter inhibitor potency, dose response, artefact control for TLR9-MyD88 binding inhibitor project, BLA reporter cells, FRET fluorescence (AID 588341); format: cell-based;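 note: cell based assay in CHO-K1 cells stably expressing beta-lactamase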
INS1 = assay: beta cell apoptosis inhibitors, cytokine rescue, dose response, luminescence, retest (AID 449756); format: functional, cell-based; details: Rattus norvegicus;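 note: cell death triggered by IL-1 beta plus TNF-alpha plus IFN-gamma mixture; protective hits raise ATP signal compared with cytokine alone wells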
[30] = target: ATP-dependent molecular chaperone HSP82 (Candida albicans (strain WO-1) (Yeast), UniProt C4YTQ8); assay: loss of DOC-induced GRE-beta-galactosidase reporter signal, dose response, Hsp90 inhibitor project, S. cerevisiae, luminescence (AID 2400); format: functional, cell-based;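 note: beta-galactosidase luminescence from glucocorticoid response element reporter as proxy for Hsp90 function; inhibitor potency where signal loss means Hsp90 inhibition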
[31] = target: Hepatocyte nuclear factor 4-alpha (Homo sapiens, UniProt P41235); format: functional, cell-based;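 note: biochemical luminescence-based dose-response counterscreen measuring inhibition of HNF4 dimerization, run alongside a screen for blockers of ABHD5–perilipin-5 interaction; split luciferase complementation of HNF4 fusion proteins in cell lysate measuring dimerization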
[32] = inhibitors of HIV Env-driven cell fusion, dose response, cherry-pick (AID 652057); format: functional, cell-based
[33] = CEM21 lymphoblast cell cytotoxicity, dose response, cytotoxicity control for viral fusion inhibitor project, CellTiter-Glo luminescence, cherry-picked (AID 652042); format: functional, cell-based;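 note: potency for signal decrease meaning cytotoxicity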
[34] = ZM109 Env clade C HIV-1 fusion inhibitors, dose response, HeLa effector, CEM target cells, luciferase, cherry-pick (AID 652058); format: functional, cell-based
[35] = off-target signal loss in HeLa-CEM21 co-culture – HeLa F-luc CTL cells, cherry-picked, counter-screen for HIV-1 Env fusion inhibitor project, dose response (AID 652040); format: functional, cell-based;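 note: potency for signal decrease marking cytotoxic or nonspecific inhibition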
[36] = inhibitors of clade B AD8 Env fusion, dose response, cell-based, cherry-pick (AID 652062); format: functional;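 note: luciferase signal from cell-cell fusion driven by HIV-1 clade B AD8 Env; potency is for inhibitors of fusion seen as a drop in luminescence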

T1 sequence (P41145 whole entry): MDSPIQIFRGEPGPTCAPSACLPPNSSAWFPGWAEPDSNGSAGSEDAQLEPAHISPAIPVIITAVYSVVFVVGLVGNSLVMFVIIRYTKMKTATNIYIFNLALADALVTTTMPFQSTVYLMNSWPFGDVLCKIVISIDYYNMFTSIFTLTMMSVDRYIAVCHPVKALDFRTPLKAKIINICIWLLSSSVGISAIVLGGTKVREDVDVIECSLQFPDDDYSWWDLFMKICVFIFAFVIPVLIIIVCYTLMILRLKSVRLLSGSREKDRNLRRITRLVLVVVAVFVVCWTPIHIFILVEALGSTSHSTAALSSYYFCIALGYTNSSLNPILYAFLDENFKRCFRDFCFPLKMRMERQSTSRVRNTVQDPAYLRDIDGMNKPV
Sequence of NACHT, LRR and PYD domains-containing protein 3 (Q96P20 whole entry, the tested form may be a part): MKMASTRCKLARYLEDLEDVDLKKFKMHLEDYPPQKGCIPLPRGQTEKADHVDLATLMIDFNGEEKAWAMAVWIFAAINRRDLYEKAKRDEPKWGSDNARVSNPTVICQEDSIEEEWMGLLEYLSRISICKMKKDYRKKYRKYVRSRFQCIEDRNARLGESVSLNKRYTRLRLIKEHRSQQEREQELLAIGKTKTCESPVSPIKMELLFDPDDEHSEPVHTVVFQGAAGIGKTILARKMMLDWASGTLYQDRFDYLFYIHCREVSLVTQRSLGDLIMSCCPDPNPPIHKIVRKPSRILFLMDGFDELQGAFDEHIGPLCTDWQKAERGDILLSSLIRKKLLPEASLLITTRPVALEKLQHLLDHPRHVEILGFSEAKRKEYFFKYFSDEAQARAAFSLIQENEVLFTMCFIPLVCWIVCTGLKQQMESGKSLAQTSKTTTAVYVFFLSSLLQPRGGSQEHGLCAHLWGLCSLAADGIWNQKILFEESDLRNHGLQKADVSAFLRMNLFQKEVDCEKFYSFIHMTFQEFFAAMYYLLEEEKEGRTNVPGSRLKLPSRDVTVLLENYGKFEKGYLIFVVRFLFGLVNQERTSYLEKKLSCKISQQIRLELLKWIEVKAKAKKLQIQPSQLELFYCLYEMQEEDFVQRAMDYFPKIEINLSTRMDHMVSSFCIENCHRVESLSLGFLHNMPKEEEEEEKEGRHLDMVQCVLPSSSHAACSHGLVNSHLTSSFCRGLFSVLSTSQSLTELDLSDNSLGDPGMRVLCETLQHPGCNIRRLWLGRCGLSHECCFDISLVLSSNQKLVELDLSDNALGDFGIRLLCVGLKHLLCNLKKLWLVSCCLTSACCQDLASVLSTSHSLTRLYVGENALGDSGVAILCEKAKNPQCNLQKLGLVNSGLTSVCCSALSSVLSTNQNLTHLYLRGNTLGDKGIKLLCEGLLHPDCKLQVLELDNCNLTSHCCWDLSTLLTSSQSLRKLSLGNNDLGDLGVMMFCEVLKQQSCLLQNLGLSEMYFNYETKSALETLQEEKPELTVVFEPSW
Sequence of Intestinal-type alkaline phosphatase (Homo sapiens, UniProt P09923) (P09923 whole entry): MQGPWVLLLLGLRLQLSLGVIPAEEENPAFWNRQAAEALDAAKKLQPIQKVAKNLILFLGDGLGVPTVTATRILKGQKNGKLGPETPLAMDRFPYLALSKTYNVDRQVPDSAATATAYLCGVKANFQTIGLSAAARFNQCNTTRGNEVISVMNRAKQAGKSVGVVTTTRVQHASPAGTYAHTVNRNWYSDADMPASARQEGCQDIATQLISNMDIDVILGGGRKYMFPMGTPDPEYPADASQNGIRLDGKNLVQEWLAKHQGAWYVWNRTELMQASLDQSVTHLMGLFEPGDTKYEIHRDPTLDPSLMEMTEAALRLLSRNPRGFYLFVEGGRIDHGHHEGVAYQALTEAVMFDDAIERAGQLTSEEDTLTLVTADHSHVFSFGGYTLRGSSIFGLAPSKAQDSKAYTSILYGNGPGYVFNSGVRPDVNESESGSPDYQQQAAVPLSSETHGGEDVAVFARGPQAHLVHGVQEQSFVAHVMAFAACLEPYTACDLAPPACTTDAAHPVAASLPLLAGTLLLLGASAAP
Sequence of Alkaline phosphatase, placental type (P05187 whole entry): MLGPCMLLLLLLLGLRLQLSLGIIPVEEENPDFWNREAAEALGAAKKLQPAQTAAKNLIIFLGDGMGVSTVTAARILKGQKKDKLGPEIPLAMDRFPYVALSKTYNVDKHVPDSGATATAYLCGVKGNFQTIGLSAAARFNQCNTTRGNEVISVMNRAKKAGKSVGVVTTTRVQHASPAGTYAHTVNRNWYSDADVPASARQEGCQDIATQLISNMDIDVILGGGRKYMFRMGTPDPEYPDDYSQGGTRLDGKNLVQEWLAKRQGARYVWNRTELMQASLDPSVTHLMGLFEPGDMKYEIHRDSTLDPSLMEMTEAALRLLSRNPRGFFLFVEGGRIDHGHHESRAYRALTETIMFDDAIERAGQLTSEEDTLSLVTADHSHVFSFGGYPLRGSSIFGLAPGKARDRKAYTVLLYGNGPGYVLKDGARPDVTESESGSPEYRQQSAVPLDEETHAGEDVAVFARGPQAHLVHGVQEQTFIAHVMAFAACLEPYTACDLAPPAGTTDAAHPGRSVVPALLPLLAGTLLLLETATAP
Sequence of Type-1 angiotensin II receptor (P30556 whole entry, the tested form may be a part): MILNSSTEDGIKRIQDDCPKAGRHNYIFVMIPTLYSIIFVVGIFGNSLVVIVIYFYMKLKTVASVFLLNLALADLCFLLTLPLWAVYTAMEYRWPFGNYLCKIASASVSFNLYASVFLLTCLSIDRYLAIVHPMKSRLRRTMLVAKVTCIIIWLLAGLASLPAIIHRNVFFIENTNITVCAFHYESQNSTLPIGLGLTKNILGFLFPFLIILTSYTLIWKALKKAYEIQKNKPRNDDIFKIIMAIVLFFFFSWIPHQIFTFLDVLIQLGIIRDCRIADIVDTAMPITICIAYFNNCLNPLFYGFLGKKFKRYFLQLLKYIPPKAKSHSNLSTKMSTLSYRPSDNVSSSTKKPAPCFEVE
Sequence of Mu-type opioid receptor (P35372 whole entry): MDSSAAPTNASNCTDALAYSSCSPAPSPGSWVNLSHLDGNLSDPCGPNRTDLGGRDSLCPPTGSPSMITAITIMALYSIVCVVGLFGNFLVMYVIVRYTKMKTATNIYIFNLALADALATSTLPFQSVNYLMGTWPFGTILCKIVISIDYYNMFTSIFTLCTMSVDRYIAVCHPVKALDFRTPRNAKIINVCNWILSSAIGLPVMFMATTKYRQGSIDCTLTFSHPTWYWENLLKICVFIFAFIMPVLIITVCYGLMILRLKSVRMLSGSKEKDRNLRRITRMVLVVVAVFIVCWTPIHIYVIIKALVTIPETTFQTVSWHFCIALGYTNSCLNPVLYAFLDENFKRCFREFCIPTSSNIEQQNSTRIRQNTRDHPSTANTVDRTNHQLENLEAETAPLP
Sequence of Delta-type opioid receptor (P41143 whole entry): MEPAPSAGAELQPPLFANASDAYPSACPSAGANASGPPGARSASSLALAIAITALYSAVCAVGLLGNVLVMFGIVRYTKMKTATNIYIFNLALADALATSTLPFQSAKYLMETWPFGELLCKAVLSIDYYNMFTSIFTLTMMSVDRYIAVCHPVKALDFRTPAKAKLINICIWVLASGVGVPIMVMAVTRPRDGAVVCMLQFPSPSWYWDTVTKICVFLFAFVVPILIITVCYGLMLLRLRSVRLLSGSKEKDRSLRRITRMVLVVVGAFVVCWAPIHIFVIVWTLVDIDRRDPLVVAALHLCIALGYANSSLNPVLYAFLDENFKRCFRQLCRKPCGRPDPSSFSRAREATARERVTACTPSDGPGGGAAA
Sequence of Serine/threonine-protein phosphatase (B9W6M3 whole entry): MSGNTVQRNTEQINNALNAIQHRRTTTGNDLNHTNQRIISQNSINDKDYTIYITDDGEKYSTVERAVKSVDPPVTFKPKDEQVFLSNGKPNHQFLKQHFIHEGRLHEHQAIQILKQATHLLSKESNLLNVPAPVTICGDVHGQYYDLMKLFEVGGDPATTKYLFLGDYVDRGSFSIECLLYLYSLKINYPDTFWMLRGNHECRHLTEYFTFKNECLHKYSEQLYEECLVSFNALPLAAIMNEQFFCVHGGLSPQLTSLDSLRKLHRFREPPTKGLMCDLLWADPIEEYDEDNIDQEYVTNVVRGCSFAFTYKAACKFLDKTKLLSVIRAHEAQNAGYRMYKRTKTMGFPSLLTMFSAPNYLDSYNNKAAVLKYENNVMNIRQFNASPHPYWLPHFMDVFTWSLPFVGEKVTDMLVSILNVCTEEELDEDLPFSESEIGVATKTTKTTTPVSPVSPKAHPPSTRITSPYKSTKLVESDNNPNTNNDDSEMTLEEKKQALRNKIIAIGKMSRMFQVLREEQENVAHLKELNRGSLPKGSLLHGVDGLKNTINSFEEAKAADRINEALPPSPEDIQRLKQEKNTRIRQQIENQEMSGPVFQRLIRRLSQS
Sequence of Beta Lactamase (Q932Y6 whole entry): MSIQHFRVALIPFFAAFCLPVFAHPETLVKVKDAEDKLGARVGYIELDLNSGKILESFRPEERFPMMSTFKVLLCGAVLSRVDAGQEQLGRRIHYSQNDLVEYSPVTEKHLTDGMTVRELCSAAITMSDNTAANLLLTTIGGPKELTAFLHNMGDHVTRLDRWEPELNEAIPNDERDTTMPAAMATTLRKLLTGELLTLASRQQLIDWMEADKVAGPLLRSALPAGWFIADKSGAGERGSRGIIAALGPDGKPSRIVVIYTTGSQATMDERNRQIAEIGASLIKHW
Sequence of Hepatocyte nuclear factor 4-alpha (P41235 whole entry, the tested form may be a part): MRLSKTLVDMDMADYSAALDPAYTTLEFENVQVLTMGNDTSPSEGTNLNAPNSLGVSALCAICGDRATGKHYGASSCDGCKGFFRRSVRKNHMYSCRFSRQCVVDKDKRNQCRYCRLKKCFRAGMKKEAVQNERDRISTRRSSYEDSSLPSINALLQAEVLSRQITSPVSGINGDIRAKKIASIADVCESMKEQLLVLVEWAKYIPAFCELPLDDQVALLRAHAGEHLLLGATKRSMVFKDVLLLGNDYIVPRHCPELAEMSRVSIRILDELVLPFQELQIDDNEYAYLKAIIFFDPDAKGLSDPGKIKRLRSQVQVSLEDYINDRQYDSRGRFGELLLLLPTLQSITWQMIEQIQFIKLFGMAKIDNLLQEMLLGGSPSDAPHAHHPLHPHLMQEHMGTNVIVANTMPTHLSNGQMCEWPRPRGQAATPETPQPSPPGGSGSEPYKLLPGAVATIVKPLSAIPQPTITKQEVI

In the case of `O=[N+]([O-])c1ccc(CSc2nnc(-c3ccccn3)n2Cc2ccco2)cc1`, the EC50 [1] is reported as 2.35 µM (active), the EC50 (Mu-type opioid receptor) is reported as > 32 µM (inactive) and the EC50 [2] is reported as > 64 µM (inactive). The EC50 [3] was 2.48 µM (active).

For `CCN(CC)CCNC(=O)c1ccc(NC(=O)c2cc(-c3ccco3)nc3ccccc23)cc1`, the EC50 [4] was > 100 µM (inactive).

With `COc1ccc(N(CC(=O)Nc2cc(Cl)ccc2OC)S(=O)(=O)c2c(C)noc2C)cc1` the EC50 [5] was 4.39 µM (active), the EC50 [6] was 4.39 µM (inconclusive) and the EC50 [7] was > 120 µM (not active). The EC50 [8] was 21.5 µM (inconclusive), the EC50 [9] was 3.56 µM (inconclusive) and the EC50 [10] was 3.56 µM (active). For the same molecule, the EC50 [11] was 106 µM (active), the EC50 [12] was 5.82 µM (active) and the EC50 [13] was 21.5 µM (active).

In the case of `CCN1/C(=C/C=C/c2oc3ccc(-c4ccccc4)cc3[n+]2CC)Oc2ccc(-c3ccccc3)cc21`, the EC50 [14] is reported as 3.16 µM (inconclusive), the EC50 [7] is reported as < 0.1 µM (active) and the EC50 [15] is reported as 0.696 µM (active). The EC50 [16] was 1.5 µM (active), the EC50 (BJ [17]) was 1.63 µM (inconclusive) and the EC50 (cells) was 0.863 µM (active). For the same molecule, the EC50 [11] was < 0.1 µM (active), the EC50 [12] was < 0.1 µM (active) and the EC50 (BJ [18]) was 1.32 µM (inconclusive). For the same molecule, the EC50 [19] was 0.976 µM (active), the CC50 [20] was 1.56 µM (active) and the EC50 [21] was 104 µM (active). The EC50 (BJ [22]) was 3.42 µM (inconclusive), the EC50 [23] was 1.04 µM (inconclusive) and the EC50 (Streptococcus) was 3.89 µM (active). The EC50 [24] was 0.659 µM (active), the IC50 [25] was 9.07 µM (active) and the EC50 [26] was 24.2 µM (active). For the same molecule, the IC50 [27] was > 100 µM (inactive), the EC50 [28] was 22.2 µM (active) and the IC50 (CHO) was 1.45 µM (active). For the same molecule, the EC50 (BJ [29]) was < 0.104 µM (active), the IC50 (Beta Lactamase) was 10.7 µM (inactive) and the AC50 (INS1) was 0.23 µM (active). For the same molecule, the EC50 [30] was 23.6 µM (active), the IC50 [31] was 3.88 µM (active) and the AC50 [32] was 1.15 µM (active). The AC50 [33] was 1.59 µM (active), the AC50 [34] was 3.77 µM (active) and the AC50 [35] was 6.77 µM (active). For the same molecule, the AC50 [36] was 2.55 µM (active).
